Source: patent EP0696280B1, “SUBSTITUTED PYRROLIDIN-3-YL-ALKYL-PIPERIDINES USEFUL AS TACHYKININ ANTAGONISTS” (MERRELL PHARMACEUTICALS INC., priority 1993, dated 1994)
Counter-ions that a name gives are not always drawn. Like-named read-outs stand apart in the source and are kept apart here.

What was measured:
NK1 receptor [1] = biological target: T1, NK1 receptor (Cavia porcellus, UniProt P30547); assay: Antagonism of iodinated tachykinin binding to NK1 receptor (125I-Bolton Hunter Lys-3 labeled substance P, guinea pig lung membranes)
T1 construct: Tissues or cells were homogenized with a Polytron in 15 volumes of 50 mM Tris-HCl buffer; tissue Keystone Biologicals, Cleveland, OH; host or cells: guinea pig lung membranes
T1 sequence (P30547 whole entry): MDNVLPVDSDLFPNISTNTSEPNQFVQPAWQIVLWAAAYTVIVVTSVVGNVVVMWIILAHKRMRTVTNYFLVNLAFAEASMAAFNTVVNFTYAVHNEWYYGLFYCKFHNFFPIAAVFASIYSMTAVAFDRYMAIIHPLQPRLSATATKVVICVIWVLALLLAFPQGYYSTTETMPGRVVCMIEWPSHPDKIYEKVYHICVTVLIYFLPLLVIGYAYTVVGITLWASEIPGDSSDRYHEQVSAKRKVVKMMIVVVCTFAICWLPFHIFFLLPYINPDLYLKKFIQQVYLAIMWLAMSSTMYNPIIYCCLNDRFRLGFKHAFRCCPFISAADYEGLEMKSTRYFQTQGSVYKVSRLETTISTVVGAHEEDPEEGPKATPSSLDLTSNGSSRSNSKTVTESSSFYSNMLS
Protocol: (§1) The NK1 receptor affinity of proposed tachykinin antagonists was devaluated in guinea pig lungs (Keystone Biologicals, Cleveland, OH), affinity for the NK2 receptor evaluated in HSKR-1 cells (which are mouse 3T3 fibroblasts expressing the human jejunal NK2 receptor) and NK-3 receptor affinity was evaluated in freshly collected guinea pig cerebral cortex. Tissues or cells were homogenized with a Polytron in 15 volumes of 50 mM Tris-HCl buffer (pH 7.4, 4°C) and centrifuged. The pellet was resuspended in Tris-HCl buffer and was centrifuged; the pellet was washed twice by resuspension. The final pellet was resuspended at a concentration of 40 mg/ml for tissues (guinea pig lung and cerebral cortex) and 20 mg/ml for cells in incubation buffer and remained at room temperature for at least 15 min prior to use. Receptor binding was initiated by addition of 250 µl membrane preparation in duplicate to 0.1 nM of the following radioligands: ^125I-Bolton Hunter Lys-3 labeled substance P; ^125iodohistidyl-1-neurokinin A; and ^125I-Bolton Hunter labeled Lys-4 eledoisin in a final volume of 500 µl of buffer containing 50 mM Tris-HCl (pH 7.4 at room temperature), 0.1% bovine serum albumin, 2 mM MnCl2, 40 µg/ml bacitracin, 4 µg/ml leupeptin and chymostatin, 1 µM thiorphan and various doses of the putative tachykinin antagonists. Incubations were performed at room temperature for 90 min (NK1 receptor assays) or 2 hr (NK2 and NK3 receptor assays); binding was terminated by addition of 50 mM Tris-HCl buffer (pH 7.4, 4°C) and filtration under vacuum through GF/B filters presoaked with 0.1% polyethyleneimine (NK1 receptor assays) or 0.5% bovine serum albumin (NK2 and NK3 receptor assays). Filter bound radioactivity was quantitated in a gamma counter. Nonspecific binding was defined as binding in the presence of 1 µM substance P, neurokinin A, or eledoisin. Specific binding was calculated by subtracting nonspecific binding from total binding. Competition of iodinated SP, NKA, or eledoisin binding by test compounds or standards was expressed as a percentage of this maximum competition. IC50 values (concentration required to inhibit 50% of receptor binding) were generated for each of the test compounds by nonlinear regression using an iterative curve fitting program (GraphPAD Inplot, San Diego, CA).

[2] = biological target: T2, human jejunal NK2 receptor (Homo sapiens, UniProt P21452); assay: Antagonism of iodinated tachykinin binding to NK2 receptor (125iodohistidyl-1-neurokinin A, HSKR-1 cell membranes)
T2 construct: expressed in transfected cells; host or cells: HSKR-1 cells (mouse 3T3 fibroblasts)
T2 sequence (P21452 1-398): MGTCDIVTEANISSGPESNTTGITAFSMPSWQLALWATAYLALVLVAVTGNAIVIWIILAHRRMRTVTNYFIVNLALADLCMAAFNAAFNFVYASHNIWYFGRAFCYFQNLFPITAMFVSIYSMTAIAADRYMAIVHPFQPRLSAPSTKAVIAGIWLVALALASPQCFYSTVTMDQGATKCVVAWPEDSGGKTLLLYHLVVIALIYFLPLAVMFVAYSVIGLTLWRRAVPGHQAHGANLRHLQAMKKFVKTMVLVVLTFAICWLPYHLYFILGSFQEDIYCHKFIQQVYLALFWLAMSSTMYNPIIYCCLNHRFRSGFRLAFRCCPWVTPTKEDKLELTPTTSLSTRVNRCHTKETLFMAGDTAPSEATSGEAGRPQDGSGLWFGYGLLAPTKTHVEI
Protocol: as §1

NK1 receptor [3] = biological target: T3, NK1 receptor (Homo sapiens, UniProt P25103); assay: Antagonism of NK1 receptor mediated (SP-induced) phosphatidylinositol turnover in UC11 cells; format: cell-based
T3 construct: endogenous in cells; host or cells: UC11 cells
T3 sequence (P25103 whole entry): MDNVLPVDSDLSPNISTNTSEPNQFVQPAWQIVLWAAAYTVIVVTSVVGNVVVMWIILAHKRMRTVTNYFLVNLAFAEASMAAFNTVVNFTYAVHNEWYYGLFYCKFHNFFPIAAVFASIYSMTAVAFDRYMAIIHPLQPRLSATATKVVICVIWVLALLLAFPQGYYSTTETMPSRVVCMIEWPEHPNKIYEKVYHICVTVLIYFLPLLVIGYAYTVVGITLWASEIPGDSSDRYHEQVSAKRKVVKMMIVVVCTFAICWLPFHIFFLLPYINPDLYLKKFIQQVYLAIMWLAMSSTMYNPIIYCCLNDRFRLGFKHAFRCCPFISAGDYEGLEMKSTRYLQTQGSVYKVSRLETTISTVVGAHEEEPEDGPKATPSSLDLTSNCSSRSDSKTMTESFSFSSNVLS
Protocol: Tachykinin-mediated inositol phosphate accumulation was measured in UCll or SKLKB82#3 cells in the presence and absence of NK1 or NK2 receptor antagonists, respectively. Tissues were incubated in Krebs-Henseleit buffer at 37°C with 95% O2-5% CO2 gassing. Tissues were then incubated with fresh buffer containing 100 µCi of myo-[2-^3H(N)] inositol at 37°C for 60 min with gentle gassing. After washing twice at room temperature in 5 ml buffer containing 10 mM LiCl, tissues were incubated for 30 min at room temperature with a buffer change at 15 min. Buffer was removed and Krebs-Henseleit buffer (containing 40 µg/ml bacitracin, 4 µg/ml each of leupeptin and chymostatin, 0.1% bovine serum albumin and 10 mM each of thiorphan and LiCl) added. After 15 min, SP was added to UCll cells or NKA to SKLKB82#3 cells at various concentrations to start the reaction. After incubation for 60 min at room temperature the reaction was terminated by addition of 930 µl chloroform: methanol (1:2 by volume) to each tube, followed by 310 µl chloroform and 310 µl doubly distilled water. Samples were vortexed, centrifuged, and 0.9 ml of the aqueous (top) phase removed and added to 2 ml ddH2O. The mixture was vortexed and loaded onto a 50% Bio-Rad AG 1-X8 (formate form, 100-200 mesh) exchange column (Bio-Rad Laboratories, Hercules, CA). The columns were washed, in order, with: 1) 10 ml doubly distilled water, 2) 5 ml of 5 mM disodium tetraborate/60 mM sodium formate, and 3) 5 ml of 1 M ammonium formate/0.1 M formic acid. The third elution was collected and 1 ml counted in 7 ml scintillation fluid. A 50 µl aliquot of the organic (bottom) phase was removed, dried in a scintillation vial and counted in 7 ml scintillation fluid.
The ratio of DPM in the aqueous phase aliquot (total inositol phosphates) to the DPM in the 50 µl organic phase aliquot (total [^3H]inositol incorporated) was calculated for each sample. Data are expressed as a percent of agonist-induced accumulation of [^3H]-inositol phosphates over basal levels. The ratios in the presence of test compound and/or standards were compared to the ratios for control samples (i.e. no stimulating agonist). Dose-response graphs were constructed and the abilities of the test compounds to inhibit tachykinin-induced phosphatidylinositol turnover determined with the aid of a computer program. […] Data is expressed as percent stimulation of total inositol phosphate accumulation over basal levels and normalized to the maximum response produced by SP. […] Schild analysis is performed using dose response curves (such as those presented in Figures 1a and 1b) to obtain a value indicative of the strength of a competitive antagonist and is expressed as the pA2, which is the negative logarithm of the molar concentration of antagonist which reduces the effect of a dose of agonist to one-half of that expected at the dose of agonist. […]
Values are mean (95% confidence limits) derived from Schild analysis of 2-3 experiments per compound per receptor.

[4] = Schild analysis, SP in UC11 cells, mean (95% confidence limits), 2-3 experiments

Structure (SMILES) | IC50 (NK1 receptor [1]) [nM] | affinity for NK1 receptors (NK1 receptor [1]; result in words) | IC50 [2] [nM] | affinity for NK2 receptors ([2]; result in words) | antagonism of the receptor mediated SP induced PI turnover (NK1 receptor [3]; UC11 cells, Figure 1a, result in words) | IC50 ([2]; HSKR-1 cells (mouse 3T3 fibroblasts expressing human jejunal NK2 receptor), mean of several experiments, read-out: NK-2 IC50) [nM] | Kb (NK1 receptor [3]) [nM] | NK-1 RECEPTOR -SLOPE (NK1 receptor [3]; [4]) | Kb (NK1 receptor [3]; Schild analysis, SP in UC11 cells, mean (95% confidence limits), 2-3 experiments, read-out: NK-1 RECEPTOR pA2 (converted)) [nM]
COc1cc(C(=O)N2CCC(CCN3CCC(C(N)=O)(c4ccccc4)CC3)(c3ccc(Cl)c(Cl)c3)C2)cc(OC)c1OC (stereo not shown) [Example 3, 1-[2-[3-(3,4-dichloro-phenyl)-1-(3,4,5-trimethoxy-benzoyl)-pyrrolidin-3-yl]-ethyl]-4-phenyl-piperidine-4-carboxylic acid amide] | 5 | high affinity | 15 | high affinity | dose related antagonism | – | – | – | –
COc1cccc(OC)c1C(=O)N1CCC(CCN2CCC(C(N)=O)(c3ccccc3)CC2)(c2ccc(Cl)c(Cl)c2)C1 (racemic) [Example 5A, 1-[2-[3-(3,4-dichloro-phenyl-3-yl)-1-(2,6-dimethoxy-benzoyl)-pyrrolidin-3-yl]-ethyl]-4-phenyl-piperidine-4-carboxylic acid amide hydrochloride] | 20 | – | – | – | – | 40 | 47.9 | 1.17 (0.41-1.93) | –
COc1cc(C(=O)N2CCC(CCN3CCC(C(N)=O)(c4ccccc4)CC3)(c3ccc(Cl)c(Cl)c3)C2)cc(OC)c1OC (racemic) [Example 3A, 1-[2-[3-(3,4-dichloro-phenyl-3-yl)-1-(3,4,5-trimethoxy-benzoyl)-pyrrolidin-3-yl]-ethyl] -4-phenyl-piperidine-4-carboxylic acid amide hydrochloride] | 5.97 | – | 21 | – | – | – | – | 0.90 (0.65-1.15) | 12.3
